Test results: the supplement of paper PMC13380429
Where a name gives a salt, the structure may show the parent alone.

Key:
Conditions in all cases: 72 h
U2OS [1] = experiment: cell viability relative to DMSO; higher = less toxic
Caco-2 [2] = experiment: as above
HepG2 [3] = experiment: as above
Calu-3 [4] = experiment: as above
Vero E6 [5] = experiment: as above
U2OS [6] = experiment: drug sensitivity score (DSS) for viability; higher = more toxic; extreme values may be limits of the assay
Caco-2 [7] = experiment: as above
HepG2 [8] = experiment: as above
Calu-3 [9] = experiment: as above
Vero E6 [10] = experiment: as above
U2OS [11] = experiment: relative viability EC50 (midpoint between 100% and the lowest measured viability); higher = less toxic
Caco-2 [12] = experiment: as above
HepG2 [13] = experiment: as above
Vero E6 [14] = experiment: as above
Calu-3 [15] = experiment: as above

| SMILES | cell viability (U2OS [1]; 1 nM) | cell viability (U2OS [1]; 10 nM) | cell viability (U2OS [1]; 100 nM) | cell viability (U2OS [1]; 1000 nM) | cell viability (U2OS [1]; 10000 nM) | cell viability (Caco-2 [2]; 1 nM) | cell viability (Caco-2 [2]; 10 nM) | cell viability (Caco-2 [2]; 100 nM) | cell viability (Caco-2 [2]; 1000 nM) | cell viability (Caco-2 [2]; 10000 nM) | cell viability (HepG2 [3]; 1 nM) | cell viability (HepG2 [3]; 10 nM) | cell viability (HepG2 [3]; 100 nM) | cell viability (HepG2 [3]; 1000 nM) | cell viability (HepG2 [3]; 10000 nM) | cell viability (Calu-3 [4]; 1 nM) | cell viability (Calu-3 [4]; 10 nM) | cell viability (Calu-3 [4]; 100 nM) | cell viability (Calu-3 [4]; 1000 nM) | cell viability (Calu-3 [4]; 10000 nM) | cell viability (Vero E6 [5]; 1 nM) | cell viability (Vero E6 [5]; 10 nM) | cell viability (Vero E6 [5]; 100 nM) | cell viability (Vero E6 [5]; 1000 nM) | cell viability (Vero E6 [5]; 10000 nM) | drug sensitivity score (U2OS [6]) | drug sensitivity score (Caco-2 [7]) | drug sensitivity score (HepG2 [8]) | drug sensitivity score (Calu-3 [9]) | drug sensitivity score (Vero E6 [10]) | relative viability EC50 (U2OS [11]) | relative viability EC50 (Caco-2 [12]) | relative viability EC50 (HepG2 [13]) | relative viability EC50 (Vero E6 [14]) | relative viability EC50 (Calu-3 [15]) |
| --- | --- | --- | --- | --- | --- | --- | --- | --- | --- | --- | --- | --- | --- | --- | --- | --- | --- | --- | --- | --- | --- | --- | --- | --- | --- | --- | --- | --- | --- | --- | --- | --- | --- | --- | --- |
| O=C1NC(=O)[C@@H](c2cn3c4c(cccc24)CCC3)[C@@H]1c1c[nH]c2ccccc12 [tivantinib] | 102% | 102% | 95.1% | 51.9% | 26.2% | 107% | 94.3% | 103% | 60.2% | 44.7% | 108% | 96.5% | 99.5% | 39.5% | 41.5% | 98.3% | 94.1% | 98.9% | 72.6% | 59.6% | 97.3% | 99.8% | 92.8% | 36.5% | 28.2% | 10.1 | 7.7 | 11.1 | 5.3 | 12.7 | 0.648 µM | 0.688 µM | 0.311 µM | 0.331 µM | – |
| CCOCOC[C@H](C[C@H](C)C(=O)NO)NC(=O)c1ccc(Oc2ccccc2)cc1 [ONO-4817] | 98.1% | 103% | 97.1% | 104% | 92.6% | 104% | 104% | 100% | 103% | 87.6% | – | – | – | – | – | 92.3% | 85.3% | 97.6% | 95.4% | 89.2% | 103% | 102% | 103% | 101% | 91.5% | 0 | 0 | – | 0 | 0 | > 10 µM | > 10 µM | – | > 10 µM | > 10 µM |
| Cc1cccc(C(=O)NCN2CCN(c3ccccc3C#N)CC2)c1 | 98.1% | 103% | 97.2% | 101% | 101% | 95.3% | 103% | 89.1% | 104% | 104% | 105% | 96.6% | 96.9% | 101% | 94.5% | – | – | – | – | – | – | – | – | – | – | 0 | 0 | 0 | – | – | > 10 µM | > 10 µM | > 10 µM | – | – |
| CC[C@@]1(O)C(=O)OCc2c1cc1n(c2=O)Cc2c-1nc1cc(F)c(C)c3c1c2[C@@H](N)CC3 [exatecan-mesylate] | 102% | 92% | 56.9% | 17% | 4.1% | 90.7% | 72.7% | 32.7% | 21% | 20.7% | 65.8% | 40.5% | 20.8% | 2.3% | 3.9% | – | – | – | – | – | 110% | 91.8% | 60.6% | 15.9% | 0.4% | 20.9 | 25.8 | 36.4 | – | 20.5 | 0.127 µM | 0.0178 µM | 0.0038 µM | 0.158 µM | – |
| C/C1=C/C[C@@H](/C(C)=C/c2csc(C)n2)OC(=O)C[C@H](O)C(C)(C)C(=O)[C@H](C)[C@@H](O)[C@@H](C)CCC1 [epothilone-D] | 97.6% | 53.1% | 29.5% | 23.2% | 41.5% | 101% | 83.1% | 53.9% | 46.3% | 56.9% | 91.8% | 50.6% | 22.2% | 15.8% | 22.2% | 110% | 84% | 61.9% | 55.2% | 54.1% | 99.8% | 83.9% | 45.1% | 25.3% | 46.8% | 29.4 | 17.4 | 31.7 | 14.8 | 21.5 | 0.0075 µM | 0.0202 µM | 0.0074 µM | 0.0363 µM | – |
| O=C(Nc1cccc(Br)c1)c1cccc(S(=O)(=O)N2CCCCCC2)c1 [AK-7] | 97.7% | 92.8% | 98.5% | 92.8% | 86.3% | 90.6% | 94.9% | 93.5% | 92.9% | 75.1% | 96.7% | 103% | 99.9% | 104% | 72.9% | 102% | 94% | 106% | 105% | 77% | 98.7% | 102% | 99.4% | 100% | 94.3% | 0 | 1.4 | 0.9 | 0.6 | 0 | > 10 µM | > 10 µM | – | > 10 µM | > 10 µM |
| O=C(O)c1ccccc1S [o-mercapto-benzoic-acid] | 97.9% | 94.1% | 95.9% | 94.8% | 109% | 98% | 87.2% | 86.4% | 102% | 99.4% | 99.7% | 91.5% | 89.9% | 101% | 112% | – | – | – | – | – | 92.2% | 97.9% | 96.2% | 105% | 106% | 0 | 0 | 0 | – | 0 | > 10 µM | > 10 µM | > 10 µM | > 10 µM | – |
| CCCCc1ncc(/C=C(\Cc2cccs2)C(=O)O)n1Cc1ccc(C(=O)O)cc1 [eprosartan] | 100% | 101% | 99.3% | 102% | 95.9% | 98.1% | 106% | 105% | 110% | 103% | – | – | – | – | – | 93.8% | 94.9% | 101% | 106% | 109% | 104% | 97.7% | 100% | 97.1% | 101% | 0 | 0 | – | 0 | 0 | > 10 µM | > 10 µM | – | > 10 µM | > 10 µM |
| CN[C@H]1CC[C@@H](c2ccc(Cl)c(Cl)c2)c2ccccc21 [SERTRALINE HYDROCHLORIDE] | 103% | 99.1% | 93% | 100% | 81.5% | 99.2% | 103% | 95.9% | 102% | 84.4% | 102% | 108% | 98.1% | 112% | 79.2% | 102% | 105% | 104% | 103% | 58.3% | 98.5% | 97.4% | 102% | 93.6% | 77.8% | 0.5 | 0.2 | 0.4 | 1.9 | 1.6 | > 10 µM | > 10 µM | > 10 µM | > 10 µM | – |
| COc1ccnc2[nH]cc(C(=O)C(=O)N3CCN(C(=O)c4ccccc4)C[C@H]3C)c12 [BMS-806] | 93.3% | 104% | 95.1% | 105% | 100% | 99.3% | 99% | 96.1% | 108% | 107% | – | – | – | – | – | 105% | 108% | 107% | 110% | 99.3% | 107% | 102% | 102% | 105% | 99.9% | 0 | 0 | – | 0 | 0 | > 10 µM | > 10 µM | – | > 10 µM | > 10 µM |
| N#C/C(=C\c1ccc(O)c(O)c1)C(=O)NCc1ccccc1 [AG-490] | 94.1% | 99.8% | 95.8% | 103% | 95.5% | 95.9% | 98.7% | 92.5% | 92.2% | 82.1% | 96.4% | 101% | 99.9% | 95% | 66.6% | 96.7% | 103% | 92.8% | 96.7% | 91.6% | 94.1% | 98.2% | 98.7% | 94.7% | 86.6% | 0 | 0.7 | 2.4 | 0 | 0.2 | > 10 µM | > 10 µM | – | > 10 µM | > 10 µM |
| OC[C@H]1O[C@@H](n2cnc3c(N[C@H]4CCC[C@@H]4O)ncnc32)[C@H](O)[C@@H]1O | 99.4% | 100% | 98.6% | 97.1% | 102% | 103% | 99.3% | 104% | 101% | 107% | 86.2% | 84% | 95% | 102% | 94% | – | – | – | – | – | 103% | 102% | 98.9% | 99% | 97.3% | 0 | 0 | 0 | – | 0 | > 10 µM | > 10 µM | > 10 µM | > 10 µM | – |
| CC(C)C[C@H](CN)CC(=O)O [PREGABALIN] | 94.5% | 102% | 98.9% | 98.2% | 98.2% | 128% | 122% | 95% | 104% | 82.6% | 105% | 87.3% | 106% | 103% | 98.9% | – | – | – | – | – | 93.5% | 105% | 106% | 103% | 100% | 0 | 0.3 | 0 | – | 0 | > 10 µM | > 10 µM | > 10 µM | > 10 µM | – |
| O=C(CCCN1CCC(O)(c2ccc(Cl)cc2)CC1)c1ccc(F)cc1 [haloperidol] | 102% | 104% | 97.6% | 103% | 99.1% | 110% | 104% | 97.1% | 100% | 103% | – | – | – | – | – | 99.5% | 97.9% | 92.6% | 104% | 114% | 101% | 97.3% | 95.1% | 98.9% | 94.1% | 0 | 0 | – | 0 | 0 | > 10 µM | > 10 µM | – | > 10 µM | > 10 µM |
| CCN(CCO)CCCOc1ccc2c(Nc3cc(CC(=O)Nc4cccc(F)c4)[nH]n3)ncnc2c1 [barasertib-HQPA] | 94.4% | 95.8% | 93.7% | 91.7% | 87% | 93% | 100% | 78.4% | 91.6% | 88.4% | 99.5% | 99.7% | 77.8% | 72.8% | 78.8% | 95.1% | 93% | 97.2% | 92.6% | 94.2% | 93.8% | 96% | 98.2% | 91% | 88.2% | 0 | 0.6 | 6.9 | 0 | 0 | > 10 µM | > 10 µM | – | > 10 µM | > 10 µM |
| Cn1c(COP(=O)(NCCBr)NCCBr)cnc1[N+](=O)[O-] [TH-302] | 103% | 105% | 99.9% | 105% | 108% | 107% | 94.5% | 98.6% | 97.7% | 89% | 97.6% | 97% | 118% | 103% | 81.3% | – | – | – | – | – | 101% | 100% | 98.8% | 93.1% | 97.5% | 0 | 0 | 0.4 | – | 0 | > 10 µM | > 10 µM | > 10 µM | > 10 µM | – |
